{"source": "paper PMC5319852", "about": "(Biochemistry, 2016)", "molecular_target": "Plasmodium vivax geranylgeranyl diphosphate synthase (PvGGPPS) (Plasmodium vivax, UniProt A5K4U6)", "assay": "X-ray co-crystal structure", "format": "biochemical", "data": [{"smiles": "CCCCCCCCCCOc1cccc(COc2ccc([N+](=O)[O-])cc2C(=O)O)c1", "note": "[BPH-1186]", "values": [{"measurement": "IC50", "result": 50, "unit": "µM"}]}]}
